Measured values as given in patent publication US6387881B1, “Inhibitors and substrates of thrombin” (priority 1992, dated 2002).
Values joined by “and” are separate entries in the source; they are usually repeats but may differ in a detail not shown here. Equal entries are not always repeated. Where two headings read alike, the source gives them in different places.

Assays:
[1] = target: T1, bovine thrombin in citrated normal human plasma (Bos taurus, UniProt P00735); test: Plasma thrombin time (TT), in vitro; format: biochemical; conditions: inhibitor concentration that caused a doubling of the thrombin time
T1 construct: freshly prepared bovine thrombin (5 NIHu/ml saline)
Experimental: (§1) A volume of 150 μl of citrated normal human plasma and 20 μl of buffer or sample were warmed at 37° C. for 1 min. Coagulation was started by adding 150 ul of freshly prepared bovine thrombin (5 NIHu/ml saline) and the coagulation time was recorded on a coagulometer.
(§2) A phosphate buffer, pH 7.8, containing 0.1% bovine serum albumine and 0.02% sodium azide was used. The samples were dissolved in DMSO and diluted with the buffer. When no inhibitor was used DMSO was added to the buffer to the same concentration as that used in the samples. The inhibitor concentrations were plotted against the thrombin times in a semilogarithmic graph from which the inhibitor concentration that caused a doubling (40 sec) of the thrombin time was determined.

human α-thrombin = human α-thrombin (Homo sapiens, UniProt P00734); test: biochemical; format: biochemical; conditions: read-out: Ki
Experimental: The inhibition of human α-thrombin was determined by the inhibition of the enzyme catalyzed hydrolysis of three different concentrations of the chromogenic substrate S-2238.
200 μl of sample or buffer and 50 μl of S-2238 were incubated at 37° C. for 1 min and 50 μl of human α-thrombin (0.25 NIHu/ml) was added. The initial rate of inhibited and uninhibited reactions were recorded at 405 nm. The increase in optical density was plotted according to the method of Lineweaver and Burke. The Km and apparent Km were determined and Ki was calculated using the relationship: [formula]

Kalhikrein = test: IC50 against kallikrein; format: biochemical
Urokinase = Urokinase (Homo sapiens, UniProt P00749); test: IC50 against urokinase; format: biochemical
[2] = tested on: bovine thrombin in plasma samples; test: Ex-vivo TT; format: in vivo, New Zealand white rabbits; design: key: thrombin (coagulation) time in seconds; conditions: 1 mg/kg i.v. bolus, rabbit
Experimental: as §1, §2
(§3) Data was obtained as for in-vitro tests, but using plasma samples obtained at 0, 1, 10, 30 and 60 minutes after dosing of 1 mg/kg, i.v. bolus injection in a marginal ear vein in New Zealand white rabbits, which were anaesthetized from a canula in the carotid artery. [drawing 18]

[3] = Peripheral blood pressure after intravenous dose; format: in vivo, New Zealand white rabbits
From the text: […] R. May, C. M. Hero, K. D. Butler, C. P. Page, JOURNAL OF PHARMACOLOGICAL METHODS, 24, pp 1-35, 1990. Peripheral blood pressure was monitored by a pressure sensor in the carotid artery.

Xa = target: T2, Xa (Homo sapiens, UniProt P00742); test: IC50 against Xa; format: biochemical
T2 construct: Plasmin; Xa; Urokinase

Plasmin = Plasmin (Homo sapiens, UniProt P00747); test: IC50 against plasmin; format: biochemical
[4] = tested on: 111indium-labelled platelets; test: Deposition of 111indium-labelled platelets after intravenous dose; format: in vivo, New Zealand white rabbits
From the text: M. Hero, K. D. Butler, C. […] Peripheral blood pressure was monitored by a pressure sensor in the carotid artery.

plasma samples = test: Ex-vivo APTT; format: in vivo, New Zealand white rabbits; design: unit not given here; conditions: 1 mg/kg i.v. bolus, rabbit
Experimental: (§4) A volume of 150 μl of citrated (3.2%) normal human plasma was incubated at 37° C. with sample (20 μl) or buffer (20 μl, control) for 1 min. To the solution was added reconstituted “AUTOMATED APTT” (available from Organon Teknika, 0.1 ml). Each solution was activated at 37° C. for 5 min.
(§5) After activation, calcium chloride (0.1 ml, 0.025M, prewarmed at 37° C.) was added and clot detection was timed using a “semiautomated coagulometer” (Nach, Schnicter und Gross).
as §3

[5] = IC50 with and without incubation (enzyme not given); format: biochemical
[6] = tested on: citrated normal human plasma; test: Activated partial thromboplastin time (APTT) for in vitro samples; format: biochemical
Experimental: as §4, §5

[7] = single value given, incubation not given, read-out: Kalhikrein no inc/inc
[8] = single value given, incubation not given, read-out: Urokinase no inc/inc
[9] = single value given, incubation not given, read-out: Xa no inc/inc
[10] = single value given, incubation not given, read-out: Plasmin no inc/inc
[11] = no incubation, read-out: IC50 No Incubations
[12] = with incubation, read-out: IC50 Inc.
[13] = human α-thrombin, S-2238, 37° C.

Chain of Plasmin (P00747 97-580 limits assumed, species assumed): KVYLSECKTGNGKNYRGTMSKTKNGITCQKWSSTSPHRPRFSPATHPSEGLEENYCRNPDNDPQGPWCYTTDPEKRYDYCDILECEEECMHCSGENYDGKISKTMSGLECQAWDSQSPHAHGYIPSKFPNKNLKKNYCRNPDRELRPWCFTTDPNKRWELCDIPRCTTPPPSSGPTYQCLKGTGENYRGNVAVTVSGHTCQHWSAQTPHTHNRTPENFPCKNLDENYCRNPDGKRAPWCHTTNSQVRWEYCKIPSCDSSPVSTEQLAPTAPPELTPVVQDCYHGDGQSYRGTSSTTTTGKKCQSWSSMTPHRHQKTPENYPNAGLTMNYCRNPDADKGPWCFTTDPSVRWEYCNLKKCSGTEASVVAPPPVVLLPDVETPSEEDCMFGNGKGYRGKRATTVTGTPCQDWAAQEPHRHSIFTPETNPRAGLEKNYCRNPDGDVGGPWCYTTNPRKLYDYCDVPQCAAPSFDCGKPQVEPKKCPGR
Chain of Plasmin (P00747 581-810 limits assumed, species assumed): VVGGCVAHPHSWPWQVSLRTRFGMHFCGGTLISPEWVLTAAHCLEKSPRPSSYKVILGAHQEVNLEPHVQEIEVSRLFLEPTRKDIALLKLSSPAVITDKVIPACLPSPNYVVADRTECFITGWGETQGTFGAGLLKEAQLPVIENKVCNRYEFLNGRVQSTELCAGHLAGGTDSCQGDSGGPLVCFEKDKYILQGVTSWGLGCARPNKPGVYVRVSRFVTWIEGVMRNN
T2 sequence (P00742 41-179 limits assumed): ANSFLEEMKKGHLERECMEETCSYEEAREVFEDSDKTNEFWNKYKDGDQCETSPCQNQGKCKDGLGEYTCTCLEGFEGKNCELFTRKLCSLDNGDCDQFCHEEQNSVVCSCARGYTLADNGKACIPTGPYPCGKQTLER
T2 sequence (P00742 235-488 limits assumed): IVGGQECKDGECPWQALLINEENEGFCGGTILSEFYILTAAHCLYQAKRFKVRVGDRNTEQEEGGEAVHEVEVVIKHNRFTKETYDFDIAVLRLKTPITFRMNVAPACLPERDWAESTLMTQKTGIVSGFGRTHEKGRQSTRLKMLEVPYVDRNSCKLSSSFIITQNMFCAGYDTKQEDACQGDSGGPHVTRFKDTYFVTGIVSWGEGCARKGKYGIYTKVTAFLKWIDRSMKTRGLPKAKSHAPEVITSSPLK

| Structure (SMILES) | TT [1] [µM] | Ki (human α-thrombin) [µM] | IC50 (Kalhikrein; [7]) [µM] | IC50 (Urokinase; [8]) [µM] | BLOOD PRESSURE Δ% of NORM ([3]; 4 mg/kg iv. dose) | IC50 (Xa; [9]) [µM] | IC50 (Plasmin; [10]) [µM] | IC50 [5, 11] [µM] | APTT [6] [µM] | other results |
| --- | --- | --- | --- | --- | --- | --- | --- | --- | --- | --- |
| N=C(N)Nc1ccc(CC(NC(=O)[C@@H]2CCCN2C(=O)[C@H](N)Cc2ccccc2)C(=O)CCC(=O)N2CCCCC2)cc1 (stereo partly drawn) [D-Phe-Pro-Gpa-k--Gly-Pip, D-Phe-Pro-Gpa--k--Gly-Pip] | 4.9 | 1.3 |  |  |  |  |  |  |  |  |
| CC(C)(C)OC(=O)NC(Cc1ccccc1)C(=O)N1CCCC1C(=O)NC(C=O)Cc1cnc[nH]1 [Compound 53, Boc-D-Phe-Pro-His-H] |  |  | > 413 | > 413 | 0 Δ% of NORM | > 413 | > 413 |  |  | EX-VIVO T.T. ([2]; time 0 min): 26 and 27 and 24 and 24.9; EX-VIVO T.T. ([2]; time 1 min): 86.9 and 83.5 and 80.9 and 74; EX-VIVO T.T. ([2]; time 10 min): 32 and 30 and 29.9; EX-VIVO T.T. ([2]; time 30 min): 24.4 and 25 and 25.9 and 25.4; EX-VIVO T.T. ([2]; time 60 min): 24.4 and 23.9 and 22.9; BLOOD PRESSURE Δ% of NORM ([3]; 1 mg/kg i.v. dose): NONE; PLATELET ACCUMULATION (% OF NORMAL) LEG ([4]; 1 mg/kg i.v. dose): NONE; PLATELET ACCUMULATION (% OF NORMAL) LUNG ([4]; 1 mg/kg i.v. dose): NONE; PLATELET ACCUMULATION (% OF NORMAL) LEG ([4]; 4 mg/kg iv. dose): NONE; PLATELET ACCUMULATION (% OF NORMAL) LUNG ([4]; 4 mg/kg iv. dose): NONE; EX-VIVO A.P.T.T. (plasma samples; time 0 min): 32.9 and 24.9; EX-VIVO A.P.T.T. (plasma samples; time 1 min): 41.5 and 27.9 and 30.9; EX-VIVO A.P.T.T. (plasma samples; time 10 min): 39.9 and 29.9 and 26 and 25.9; EX-VIVO A.P.T.T. (plasma samples; time 30 min): 31.4 and 30.4 and 25.4 and 26.1; EX-VIVO A.P.T.T. (plasma samples; time 60 min): 28.9 and 27.5 and 25.9 |
| CC1(C)C2CC3OB(C(CCCSC(=N)N)NC(=O)C4CCCN4C(=O)C(Cc4ccccc4)NC(=O)OCc4ccccc4)OC3(C)C1C2 [Compound 25, Z-D-Phe-Pro-BoroIrg-OPin] |  |  | 0.334 | 0.075 | 100% Δ% of NORM | 0.0141 | 0.0084 | 1.5 |  | BLOOD PRESSURE Δ% of NORM ([3]; 1 mg/kg i.v. dose): SMALL; IC50 [5, 12]: 0.068 µM |
| CCC(C)CC(NC(=O)[C@@H]1CCCN1C(=O)[C@@H](Cc1ccccc1)NC(=O)OCc1ccccc1)B1OC2CC3CC(C3(C)C)C2(C)O1 (stereo partly drawn) [Compound 22, Z-D-Phe-Pro-BoroMbg-OPin] |  |  | 12.9 | 9.13 | 0 Δ% of NORM | 3.86 | 11.5 | 0.007 |  | PLATELET ACCUMULATION (% OF NORMAL) LEG ([4]; 4 mg/kg iv. dose): 11%, TRANSIENT % OF NORMAL; PLATELET ACCUMULATION (% OF NORMAL) LUNG ([4]; 4 mg/kg iv. dose): NONE |
| N=C(N)NCCCC(NC(=O)C1CCCN1C(=O)C(N)C(c1ccccc1)c1ccccc1)C(=O)CCC(=O)N1CCCCC1.O=C(O)C(F)(F)F.O=C(O)C(F)(F)F [Compound 6, D-Dpa-Pro-Arg--k--Gly-Pip] | 0.65 | 0.2 | 199 | 494 |  | 149 | > 157 | 0.2 | 8.0 | EX-VIVO T.T. ([2]; time 0 min): 24.4 and 25.6 and 32.9 and 27.9; EX-VIVO T.T. ([2]; time 1 min): 176 and 200 and 260 and >200; EX-VIVO T.T. ([2]; time 10 min): 55 and 61.4 and 76 and 57.5; EX-VIVO T.T. ([2]; time 30 min): 33 and 36.9 and 62 and 36; EX-VIVO T.T. ([2]; time 60 min): 25 and 27.9 and 49 and 31.5; BLOOD PRESSURE Δ% of NORM ([3]; 1 mg/kg i.v. dose): NONE; PLATELET ACCUMULATION (% OF NORMAL) LEG ([4]; 1 mg/kg i.v. dose): NONE; PLATELET ACCUMULATION (% OF NORMAL) LUNG ([4]; 1 mg/kg i.v. dose): NONE; EX-VIVO A.P.T.T. (plasma samples; time 1 min): 46 and 78; EX-VIVO A.P.T.T. (plasma samples; time 10 min): 32 and 55; EX-VIVO A.P.T.T. (plasma samples; time 30 min): 34 and 57; EX-VIVO A.P.T.T. (plasma samples; time 60 min): 27 and 42 |
| N=C(N)NCCCC(NC(=O)C1CCCN1C(=O)C(N)Cc1ccc2ccccc2c1)C(=O)CCC(=O)N1CCCCC1 (mixture of isomers) [Compound 14, D,L-β-Nal-Pro-Arg--k--Gly-Pip] | 90.0 | 11.6 |  |  |  |  |  |  |  |  |
| N=C(N)NCCCC(NC(=O)C1CCCN1C(=O)C(N)C1c2ccccc2-c2ccccc21)C(=O)CCC(=O)N1CCCCC1 [Compound 8, D-Fgl-Pro-Arg--k--Gly-Pip] | 50.0 |  |  |  |  |  |  |  |  |  |
| N=C(N)NCCCC(NC(=O)C1CCCN1C(=O)C(N)C(c1ccccc1)c1ccccc1)C(=O)CCC(=O)N1CCCCC1.O=C(O)C(F)(F)F.O=C(O)C(F)(F)F (stereo not drawn) [Compound 7, L,Dpa-Pro-Arg--k--Gly-Pip] | 7.5 | 1.7 |  |  |  |  |  |  | 100.0 |  |
| N=C(N)NCCCC(NC(=O)C1CCCN1C(=O)C(N)C(c1ccccc1)c1ccccc1)C(=O)CCC(=O)N1CCCCC1 (mixture of isomers) [Compound 4, D,L-Dpa-Pro-Arg--k--Gly-Pip] |  | 0.6 |  |  |  |  |  |  | 45.0 |  |
| COCCCC(NC(=O)[C@@H]1CCCN1C(=O)[C@H](N)C(c1ccccc1)c1ccccc1)P(=O)(Oc1ccccc1)Oc1ccccc1 (stereo partly drawn) [Compound 32, H-D-Dpa-Pro-Mpg^P(OPh)2] | 9.1 |  |  |  |  |  |  | 1.48 |  | IC50 (Kalhikrein; no incubation (first value of cell), read-out: Kalhikrein no inc): 66.7 µM; IC50 (Kalhikrein; with incubation (second value of cell), read-out: Kalhikrein inc): > 18.7 µM; IC50 (Urokinase; no incubation (first value of cell), read-out: Urokinase no inc): 83 µM; IC50 (Urokinase; with incubation (second value of cell), read-out: Urokinase inc): > 18.7 µM; IC50 (Xa; no incubation (first value of cell), read-out: Xa no inc): 39.7 µM; IC50 (Xa; with incubation (second value of cell), read-out: Xa inc): > 18.7 µM; Ki (human α-thrombin; [13]): 0.0048 µM; IC50 (Plasmin; no incubation (first value of cell), read-out: Plasmin no inc): > 187 µM; IC50 (Plasmin; with incubation (second value of cell), read-out: Plasmin inc): 3.32 µM; IC50 [5, 12]: 0.00235 µM |
| CC1(C)OB(C(Cc2ccccc2)NC(=O)C2CCCN2C(=O)C(Cc2ccccc2)NC(=O)OCc2ccccc2)OC1(C)C [Compound 41, Z-D-Phe-Pro-BoroPhe-OPinac] |  |  | 16.7 | 6.67 | 21% Δ% of NORM | 7.94 | 37.3 | 0.0128 |  | PLATELET ACCUMULATION (% OF NORMAL) LEG ([4]; 4 mg/kg iv. dose): NONE; PLATELET ACCUMULATION (% OF NORMAL) LUNG ([4]; 4 mg/kg iv. dose): NONE |
| N=C(N)NCCCC(NC(=O)C1CCCN1C(=O)C(N)Cc1ccc2ccccc2c1)C(=O)CCC(=O)N1CCCCC1 [Compound 54, D-β-Nal-Pro-Arg--k--Gly-Pip] | 5.3 |  |  |  |  |  |  |  | 45.0 | Ki (human α-thrombin; [13]): 2.87 µM |
